Results from patent US20170261507A1, “Methods for Predicting and Monitoring Cancer Patients' Response to Teatment by Measuring Myeloid Derived Suppressor Cells (MDSCs)” (YISSUM RESEARCH DEVELOPMENT COMPANY OF THE HEBREW …, priority 2014, published 2017).

Legend:
[1] = system: TNFα, S100A9; assay: TNFα and S100A9 mRNA in ex vivo cultured MDSCs (Real Time PCR); assay type: cell-based, mouse; settings: 3 days
[2] = system: Gr1^+CD11b^+ MDSCs; assay: MDSC accumulation in colon, spleen and PBLs of CRC-mice; assay type: in vivo, mouse
[3] = system: MDSCs; assay: BCG chronic inflammation mouse model: ROS and NO^− production by MDSCs; assay type: in vivo; settings: splenic MDSCs, compared to inflamed-untreated mice
Description: (§1) Mice were injected intraperitoneally with 10 mg/kg body weight of Azoxymethan (AOM, purchased from Sigma-Aldrich (St. Louis, Mo., USA)) dissolved in physiological saline twice in two weeks intervals. Two weeks later, 2% dextran sulfate sodium (DSS, purchased from MP biochemicals Inc. (Santa Ana, Calif., USA)) was given in the drinking water over 7 days, followed by 14 days of regular water (15). This cycle was repeated twice. Animals were sacrificed and analyzed three weeks after the last treatment. To induce a pathology-free chronic inflammation, a previously described protocol subjecting mice to heat-killed Mycobacterium […] (BCG) treatment (16) was used.
(§2) Next, the immunoregulatory effects of 5FU and CPT11 were examined in a mouse model for chronic inflammation and associated immunosuppression (10), as described in the materials and method section above and in FIG. 13A. This experiment was performed in order to investigate whether the differential effects of the drugs are related to the presence of the tumor. Briefly, the mouse model for chronic inflammation was established by three repeated injections of heat-killed BCG bacteria. A day after the second BCG injection, mice were treated twice a week with 5FU, CPT11 or a 5FU/CPT11 combination. […] No changes in CD4^+Foxp3^+ Tregs percentage were detected (FIG. 13H), confirming that these chemotherapies specifically affect MDSCs.

[4] = system: T-cells; assay: CFSE T-cell proliferation assay, splenocytes of CRC-mice; assay type: in vivo, mouse; settings: CFSE-labeled Thy1.2^+ T-cells, TCR-CD28 mediated activation, vs untreated CRC-mice
Description: (§3) Splenocytes or purified T-cells isolated by a magnetic column separation system (Miltenyi Biotec) were labeled with 5 M CFSE (Invitrogen) and subjected to TCR-mediated activation as previously described (16). Next, the effect of the given chemotherapies on the immune status was evaluated. This was performed by testing the function of the whole T-cell population (FIG. 9J) as well as the CD8^+ T-cells (FIG. 9K) in all experimental groups along with measurements of the expression levels of CD247 in CD3^+ (FIG. 9L) and in CD8^+ T-cells (FIG. 9M). T-cell proliferative response was assessed by monitoring cell divisions of gated CFSE-labeled Thy1.2^+ (CD90^+) T-cells upon TCR-CD28 mediated activation.

[5] = system: T-cells; assay: BCG chronic inflammation mouse model: T-cell proliferation; assay type: in vivo; settings: splenocytes of inflamed mice
Description: as §1
Splenocytes or purified T-cells isolated by a magnetic column separation system (Miltenyi Biotec) were labeled with […] CFSE (Invitrogen) and subjected to TCR-mediated activation as previously described (16).
(§4) Next, it was assessed whether the 5FU and CPT11 opposite effects on MDSCs have different impacts on the host's immune competence. […] Since NK-cell activity is mediated via natural cytotoxicity receptors (NCRs), which associate with and depend on CD247, NK-cell in vivo function was assessed by monitoring the clearance of adoptively transferred allogeneic cells.

[6] = system: cleaved caspase-3; assay: BCG chronic inflammation mouse model: cleaved caspase-3 in MDSCs; assay type: in vivo; settings: compared to inflamed-untreated mice
[7] = system: MDSCs; assay: BCG chronic inflammation mouse model: MDSC levels; assay type: in vivo; settings: PBLs and spleen, compared to inflamed-untreated mice
Description: as §1, §2

[8] = system: MDSCs; assay: Myeloid cell differentiation in vivo in CRC-mice
Description: Isolated mouse splenocytes and peripheral blood lymphocytes (PBLs) were subjected to cell surface staining as previously described (16), using the following antibodies (Biolegend): FITC-labeled anti-Gr1, and anti-CD11c; PE-labeled anti-F4/80, anti-CD3s, and anti-mNKp46; and biotinylated anti-CD11b detected with streptavidin-Cy5. Intracellular staining for CD247 was performed as previously described (16) by using FITC-labeled anti-CD247 or biotinylated anti-CD247 (lone H146), the latter detected with streptavidin-Cy5. Foxp3 staining was performed according to the manufacturer's instructions (Miltenyi Biotec). Cleaved caspase-3 staining was performed using primary Rabbit anti-cleaved caspase-3 (Cell Signaling Technology, Asp175) and secondary FITC-horse anti-Rabbit antibody (Thermo Scientific).
(§5) For that purpose the expression of the S100A8/9 pro-inflammatory proteins was assessed.

[9] = system: CD247; assay: CD247 expression in T-cells of CRC-mice; assay type: in vivo, mouse; settings: splenocytes of CRC-mice
Description: as §3, with “Next,” for “Splenocytes or purified T-cells isolated by a magnetic column separation system (Miltenyi Biotec) were labeled with 5 M CFSE (Invitrogen) and subjected to TCR-mediated activation as previously described (16). Next,”

[10] = system: CD247; assay: BCG chronic inflammation mouse model: CD247 expression in T-cells; assay type: in vivo; settings: spleen and PBLs of inflamed mice
Description: as §1, §4

[11] = system: S100A8/9; settings: MDSCs from spleen of CRC-mice
Description: Cells isolated from the spleen or colon were analyzed by Western blotting for the expression of various proteins as previously described (16). The antibodies used for immunoblotting were: anti-S100A9, anti-S100A8, and anti-αTubulin. Specific antibodies were detected by anti-rabbit or anti-goat antibodies conjugated to horseradish peroxidase (Jackson Immunoresearch), followed by enhanced chemiluminescence and exposure at blotting reader (Bio-Rad software).
as §5

[12] = system: cleaved caspase-3; assay: Cleaved caspase-3 in splenic MDSCs of treated CRC-mice; assay type: in vivo, mouse
Description: Cleaved caspase-3 staining was performed using primary Rabbit anti-cleaved caspase-3 (Cell Signaling Technology, Asp175) and secondary FITC-horse anti-Rabbit antibody (Thermo Scientific).
Therefore, Splenic MDSCs from each group were analyzed for the expression of activated (cleaved) caspase-3 by flow cytometry analysis. […] Cleaved caspase-3 levels were then evaluated on the primary MDSCs, differentiated CD11c^+CD11b^+DCs and F4/80^+CD11b^+ macrophages.

[13] = system: MDSC; settings: mice, reference (11); cited from earlier work
[14] = system: NK-cells; assay: BCG chronic inflammation mouse model: NK-cell mediated clearance of allogeneic cells; assay type: in vivo; settings: spleen and PBLs of inflamed mice
[15] = system: CRC-derived MDSC; assay: Ex vivo GM-CSF mediated myeloid-cell differentiation; assay type: cell-based, mouse; settings: 10 ng/ml GM-CSF, 72 h, vs GM-CSF only
[16] = system: MDSCs; assay: NO^− and ROS production by MDSCs of treated CRC-mice (flow cytometry); assay type: in vivo, mouse
Description: Three weeks after the second DSS treatment mice were sacrificed and spleens were analyzed.

[17] = system: MDSCs isolated from spleens of CRC mice; assay: Cleaved caspase-3 in ex vivo cultured MDSCs, DCs and macrophages; assay type: cell-based, mouse
[18] = system: MDSCs isolated from spleens of CRC-mice; assay: NO^− and ROS production in ex vivo cultured MDSCs; assay type: cell-based, mouse; settings: 2.5 μmol/L, 24 h
[19] = system: CRC-mice
[20] = system: CD247; assay: BCG chronic inflammation mouse model: CD247 expression in NK-cells; assay type: in vivo; settings: chronically inflamed mice
Description: as §1, §4

O=c1[nH]cc(F)c(=O)[nH]1 [5FU, 5-fluoruracil]
mRNA levels of TNFα and S100A9 [1]: decreased levels of these factors
MDSC numbers / infiltration in colon ([2]; lamina propria and epithelium, flow cytometry, vs untreated CRC-mice): significantly reduced MDSC infiltration
MDSC numbers in spleens ([2]; vs untreated, CPT11 or 5FU/CPT11 treated CRC-mice): significantly decreased MDSC numbers
ROS and NO^− production [3]: significantly reduced
T-cell proliferative ability [4]: did not affect T-cell proliferation
T-cell proliferation [5]: significant recovery
cleaved caspase-3 levels [6]: elevated cleaved caspase-3 levels
MDSC levels [7]: significantly reduced MDSC levels
matured antigen presenting cells (CD80 and MHCII expression) [8]: induced CD80 and MHCII expression
myeloid cell differentiation in vivo (DCs and macrophages) [8]: significant shift towards differentiated DCs and macrophages
CD247 expression levels in T-cells [9]: elevated levels
CD247 expression in T-cells [10]: significant recovery of CD247 expression
S100A8/9 mRNA and protein levels [11]: significant decrease in S100A8/9 mRNA and protein levels
cleaved caspase-3 expression in spleen MDSCs [12]: significant increased cleaved caspase-3 expression
MDSC apoptosis and tumor regression [13]: selective MDSC apoptosis and tumor regression
NK-cell activity (clearance of adoptively transferred allogeneic cells) [14]: complete recovery of NK-cell activity
GM-CSF mediated CRC-derived MDSC differentiation [15]: enabled MDSC differentiation to DCs and macrophages
NO^− production ([16]; lamina propria and epithelial MDSCs, vs untreated CRC mice): significant reduction of NO^− production
NO^− and ROS production ([16]; splenic MDSCs, compared to untreated CRC-mice): significantly reduced NO^− and ROS production
5FU-induced apoptosis (cleaved caspase-3), DCs and macrophages ([17]; ex vivo, 10 ng/ml GM-CSF, 0, 1.25, 2.5, and 5, 3 days): insensitive
5FU-induced apoptosis (cleaved caspase-3), primary MDSCs ([17]; ex vivo, 10 ng/ml GM-CSF, 0, 1.25, 2.5, and 5 mol/L, 3 days): evident only in non-differentiated MDSCs
cleaved caspase-3 expression (MFI) in monocytic and granulocytic MDSCs ([17]; ex vivo, 2.5, 3 days, monocytic population more sensitive): enhanced cleaved caspase-3 expression
cleaved caspase-3 in purified cultured MDSCs ([17]; ex vivo, various doses, 3 days, dose-dependent): cleaved caspase-3 up-regulation
NO^− or ROS production in purified cultured MDSCs [18]: did not alter NO^− or ROS production
tumor load within the colon (hematoxylin-eosin histopathology) ([19]; monotherapy for three weeks, vs untreated CRC mice): decreased tumor load and recovery of colon architecture
histopathological analysis of colon sections (hematoxylin-eosin) ([19]; three weeks after second DSS treatment): only few aberrant crypt foci and tumors
CD247 expression in NK-cells [20]: almost completely recovered
